Assay results reported in PMC8044046 (European journal of medicinal chemistry, 2021).

Tests used:
Experiment in all cases: CellTiter Glo cell viability
Format in all cases: cell-based
[1] = system: BT-474 (HER2+) breast cancer cell line; conditions: read-out: IC50 (μM) BT-474 (HER2+); antiproliferative activity, 72 h, N=3, ±S.E
MCF-7 (HER2−) cell line = conditions: read-out: IC50 (μM) MCF-7 (HER2−); antiproliferative activity, 72 h, N=3
[2] = system: Calu-3 (HER2+) lung cancer cell line; conditions: read-out: IC50 (μM) Calu-3 (HER2+); antiproliferative activity, 72 h, N=3, ±S.E
[3] = system: A549 (HER2+) NSCLC cell line; conditions: read-out: IC50 (μM) A549 (HER2+); antiproliferative activity, 72 h, N=3, ±S.E

Measured: IC50

H2N-K(S-(3-amino-3(biphenyl)propionic acid)F-OH [Control]
> 100 µM: [1] | MCF-7 (HER2−) cell line | [2] | [3]
